Reference: patent publication US9580426B2, “Compounds that expand hematopoietic stem cells” (Novartis AG, priority 2008, dated 2017)

What was measured:
[1] = test system: CB CD34+ cells; test: Determination of CD34+ cell subsets by FACS; type: cell-based, human
Method: Surface Antigen Analysis: The cells are washed with staining media (Hanks balanced salt solution containing FBS (2%) and EDTA (2 mM)) and stained (at 4° C. for 30 minutes) with indicated primary conjugated antibodies. The cells are washed in the previously described buffer and analyzed using a BD LSR II flow cytometer (Becton Dickinson, San Jose, Calif.). The cells are passed at a rate of up to 1000 cells/second using 488-nm argon and 633-nm HeNe laser beams as the light source for excitation. Emission of 10^4 cells is measured using logarithmic amplification and analyzed using FlowJo software (TreeStar Inc. Ashland, Oreg.). Cells stained with primary conjugated isotype control antibodies are used to determine background fluorescence.
Determination of CD34^+ cell subsets: The percentages of CD34^+ cell subsets are determined from aliquots of the cell culture. Cells were stained with APC anti-Thy1.1, PerCP anti-CD34, PECy7 anti CD45RA, FITC anti CD38, and PE anti-CD133 for determination of CD34^+Thy1.1^+, CD34^+CD45RA^−, CD34^+CD38^−, CD133^+CD38^− and CD34^+CD133^+ cells. Antibodies to CD34, CD38, Thy1.1 and CD45RA were purchased from Becton Dickinson and antibodies to CD133 were purchased Miltenyi Biotec. FACS analysis results of these subsets are given as percentage of the total population. The absolute number of each population of cells in the culture is calculated from the total number of cells multiplied by the percentage of each population. Starting with CB CD34+ cell, after five weeks the total cell number in the cultures increased on average greater than 2-fold in the 4-(2-(2-(benzo[b]thiophen-3-yl)-9-isopropyl-9H-purin-6-ylamino)ethyl)phenol (compound 1, table 1; example 1) 1 micromolar treated cells compared to control cultures. More importantly, >50% of 4-(2-(2-(benzo[b]thiophen-3-yl)-9-isopropyl-9H-purin-6-ylamino)ethyl)phenol (compound 1, table 1; example 1) cultured cells were CD34^+ compared to <10% of vehicle cultured cells resulting in a greater than 10-fold expansion of CD34^+ cells compared to control and a greater than 10.000-fold expansion compared to input cells. In addition, the presence of 1 micromolar 4-(2-(2-(benzo[b]thiophen-3-yl)-9-isopropyl-9H-purin-6-ylamino)ethyl)phenol (compound 1, table 1; example 1) increased both the percentage and total numbers of the CD34^+ subpopulations, CD34^+CD45RA^−, CD34^+CD38^−, CD133^+CD38^−, and CD34^+CD133^+ resulting in a net expansion of greater than 30-fold for each subset.

[2] = test system: mPB-derived CD34+ cells; test: Genome-wide transcriptional profiling; type: cell-based, human; details: 24 hours
Description: The two genes that were the most highly repressed by treatment with Example 1 (cytochrome P450 1B1 [CYP1B1] and the aryl hydrocarbon receptor repressor [AHRR]) are transcriptionally regulated by the aryl hydrocarbon receptor (AHR). Therefore, compounds of the invention could be acting as an antagonist of AHR signaling.

[3] = target: T1, AHR (Rattus norvegicus, UniProt P41738); test: Dioxin induced AHR dependent transcription, rat cells; type: cell-based
T1 construct: had no activity on rat cells; endogenous in cells; host or cells: unnamed rat cells
T1 sequence (P41738 10-853): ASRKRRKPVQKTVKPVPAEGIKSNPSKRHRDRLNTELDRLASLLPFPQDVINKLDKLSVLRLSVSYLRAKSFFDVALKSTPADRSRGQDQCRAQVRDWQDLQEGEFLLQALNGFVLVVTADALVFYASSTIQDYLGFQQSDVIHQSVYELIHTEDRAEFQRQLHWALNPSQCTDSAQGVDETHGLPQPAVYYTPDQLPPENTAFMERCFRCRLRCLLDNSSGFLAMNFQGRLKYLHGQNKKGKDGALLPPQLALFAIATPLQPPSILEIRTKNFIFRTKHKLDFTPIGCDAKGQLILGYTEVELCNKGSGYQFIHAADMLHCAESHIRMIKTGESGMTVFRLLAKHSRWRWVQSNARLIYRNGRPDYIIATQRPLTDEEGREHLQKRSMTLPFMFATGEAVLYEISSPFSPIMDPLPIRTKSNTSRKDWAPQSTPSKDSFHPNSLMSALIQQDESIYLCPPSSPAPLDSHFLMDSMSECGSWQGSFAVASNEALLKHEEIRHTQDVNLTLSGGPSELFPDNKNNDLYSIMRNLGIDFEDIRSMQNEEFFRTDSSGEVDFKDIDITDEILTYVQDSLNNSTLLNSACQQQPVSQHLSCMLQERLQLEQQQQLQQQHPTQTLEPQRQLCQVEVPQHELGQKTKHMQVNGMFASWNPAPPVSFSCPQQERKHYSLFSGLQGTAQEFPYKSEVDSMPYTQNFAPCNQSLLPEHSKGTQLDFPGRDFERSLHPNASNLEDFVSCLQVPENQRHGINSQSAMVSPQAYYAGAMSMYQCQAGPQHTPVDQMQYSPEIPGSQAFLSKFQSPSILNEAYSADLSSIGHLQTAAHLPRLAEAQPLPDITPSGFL
Method: Further, the ability of Example 1 to block 2,3,7,8-tetrachlorodibenzo-p-dioxin (TCDD, dioxin)-mediated CYP1B1 mRNA expression by qPCR in mPB-derived CD34^+ cells was determined. Treatment with TCDD (3 nM) caused a 4.5-fold increase in the level of CYP1B1 mRNA compared with the vehicle control (0.01% toluene). […] To determine the effects of Example 1 in AHR transcription the ability of Example 1 to inhibit a dioxin-induced AHR dependent luciferase reporter gene assay was tested.

[4] = test system: murine HSC; test: Activity on murine HSC; type: cell-based

## CC(C)n1cnc2c(NCCc3ccc(O)cc3)nc(-c3csc4ccccc34)nc21 [Example 1, 4-(2-(2-(benzo[b]thiophen-3-yl)-9-isopropyl-9H-purin-6-ylamino)ethyl)phenol]
[1]; 1 micromolar
  net expansion of each subset CD34+CD45RA-, CD34+CD38-, CD133+CD38-, CD34+CD133+: greater than 30 fold
[1]; 1 micromolar, after five weeks
  increase of total cell number compared to control cultures: greater than 2 fold
[1]; five weeks
  expansion of CD34+ cells compared to control: greater than 10 fold
  expansion of CD34+ cells compared to input cells: greater than 10.000 fold
[1]; five weeks, vehicle <10%
  percentage of cultured cells that were CD34+: > 50%
[2]; 1 μM
  down-regulation of 5 genes (most repressed: CYP1B1, AHRR): > 70%
[2]
  up-regulation of 5 genes of >50,000 probe sets: greater than 3 fold
[3]
  agonist activity (AHR dependent transcription): only weak agonist activity
  inhibition of dioxin induced transcription: no activity
[4]
  activity on murine HSC: lack of activity
